Experimental data from article PMC11674141, “Antimicrobial activity and synergistic effect of phage-encoded antimicrobial peptides with colistin and outer membrane permeabilizing agents against Acinetobacter baumannii” (PeerJ, 2024).
In brackets after ≈: the same amount, converted by molar mass. Read-outs that look alike come from different tables or passages of the source. Blank lines part the entries; values can stand above or below the compound they belong to. Where a SMILES comes first, the peptide text is derived from it. Bridges are numbered along the chain shown (N, C = ends). Where no end group is shown, it is not given here. [ ]: non-standard residue; d: D form. The star is where a group is joined. X1 = CC[C@H](C)CCCCC(=O)*; Dab = NCC[C@H](N)C(=O)O

What was measured:
A. baumannii ATCC19606 [1] = settings: for MIC values of outer membrane permeabilizers and colistin: A. baumannii 19606
A. baumannii ATCC19606 [2] = assay: microbe, parasite or virus in culture; settings: Acinetobacter baumannii, ATCC19606, read-out: MIC alone
A. baumannii ATCC19606 [3] = settings: ATCC19606, checkerboard, agent alone
[4] = microdilution, triplicate samples
[5] = A. baumannii 19,606, microdilution, MHB, 37 °C overnight, triplicate samples

MIC values of outer membrane permeabilizers and colistin (A. baumannii ATCC19606 [1]; [4]): 2500 µg/mL
Compound: O=C(O)CC(O)C(=O)O (racemic) [DL-Malic acid, reference compound]

MIC values of outer membrane permeabilizers and colistin (A. baumannii ATCC19606 [1]; [4]): 5000 µg/mL | MIC (A. baumannii ATCC19606 [2]): 5000 µg/mL (≈ 26 mM)
Compound: O=C(O)CC(O)(CC(=O)O)C(=O)O [Citric acid, reference compound]

MIC (ATCC19606) (A. baumannii ATCC19606 [1]; ATCC19606): > 5000 µg/mL | MIC values (A. baumannii ATCC19606 [1]; ATCC19606): >5,000 ug/ml
Compound: EYRSSWTGAYGASVLNKYIGMGRNS [PSTF02]

Second part, the compound before the results:

Compound: CC[C@H](C)CCCCC(=O)N[C@@H](CCN)C(=O)N[C@H](C(=O)N[C@@H](CCN)C(=O)N[C@H]1CCNC(=O)[C@H]([C@@H](C)O)NC(=O)[C@H](CCN)NC(=O)[C@H](CCN)NC(=O)[C@H](CC(C)C)NC(=O)[C@@H](CC(C)C)NC(=O)[C@H](CCN)NC1=O)[C@@H](C)O [Colistin] (X1-[Dab]T[Dab][Dab][Dab][dL]L[Dab][Dab]T; lactam 4-C (inferred); N-terminus assumed)
Colistin Resistance MIC (MDR-AB, XDR-AB; strain AB57, XDR-AB / CR-AB): 1 µg/mL | Colistin Resistance MIC (MDR-AB, XDR-AB; strain AB59, XDR-AB / CR-AB): 0.5 µg/mL | Colistin Resistance MIC (MDR-AB, XDR-AB; strain AB329, XDR-AB / CR-AB): 1 µg/mL | Colistin Resistance MIC (MDR-AB, XDR-AB; strain CR65-40, MDR-AB / CR-AB): 8 µg/mL | Colistin Resistance MIC (MDR-AB, XDR-AB; strain CR65-43, XDR-AB / CR-AB): 4 µg/mL | Colistin Resistance MIC (MDR-AB, XDR-AB; strain CR65-47, MDR-AB / CR-AB): 2 µg/mL | Colistin Resistance MIC (MDR-AB, XDR-AB; strain CR65-51, XDR-AB / CR-AB): 2 µg/mL | Colistin Resistance MIC (MDR-AB, XDR-AB; strain CR65-55, MDR-AB / CR-AB): 2 µg/mL | Colistin Resistance MIC (MDR-AB, XDR-AB; strain CR65-71, MDR-AB / CR-AB): 4 µg/mL | Colistin Resistance MIC (MDR-AB, XDR-AB; strain CR65-74, XDR-AB / CR-AB): 2 µg/mL | MIC values of outer membrane permeabilizers and colistin (A. baumannii ATCC19606 [1]; [4]): 2 µg/mL | MIC alone (A. baumannii ATCC19606 [3]): 2 µg/mL

Compound: CC[C@H](C)[C@H](NC(=O)[C@H](CCCNC(=N)N)NC(=O)[C@H](CC(N)=O)NC(=O)[C@@H](N)CCCCN)C(=O)N[C@H](C(=O)NCC(=O)N1CCC[C@H]1C(=O)N[C@H](C(=O)N[C@@H](Cc1ccc(O)cc1)C(=O)N[C@@H](C)C(=O)N[C@@H](CCCCN)C(=O)N[C@@H](CS)C(=O)N[C@@H](CC(N)=O)C(=O)N[C@@H](CCCNC(=N)N)C(=O)N[C@@H](CO)C(=O)N[C@@H](CCCNC(=N)N)C(=O)N[C@@H](CCC(N)=O)C(=O)N[C@@H](CCSC)C(=O)N[C@@H](C)C(=O)N[C@@H](CC(C)C)C(=O)N[C@@H](CCC(=O)O)C(=O)N[C@@H](CC(N)=O)C(=O)N[C@@H](CCSC)C(=O)N[C@@H](C)C(=O)N[C@@H](Cc1ccccc1)C(=O)O)C(C)C)[C@@H](C)CC [PTL02]
MIC values (A. baumannii ATCC19606 [1]; [5]): 5,000 ug/ml | MIC (ATCC19606) (A. baumannii ATCC19606 [1]; A. baumannii ATCC19606): 5000 µg/mL (≈ 1.72 mM)

Compound: ENMRNRKWNSTDTVMRRSRFQRYLR [PTTPAT04]
MIC values (A. baumannii ATCC19606 [1]; [5]): 2,500 ug/ml | MIC (ATCC19606) (A. baumannii ATCC19606 [1]; A. baumannii ATCC19606): 2500 µg/mL
